Source: patent publication US11576859B2, “Gastric residence systems for sustained release of therapeutic agents and methods of use thereof” (Lyndra Therapeutics, Inc., priority 2015, dated 2023)
Converted amounts (≈) assume the structure as drawn.

Legend:
[1] = Rosuvastatin forced degradation in solution and in polycaprolactone formulation; type: physicochemical
Experimental: SOLUTION CONDITIONS: For acid degradation studies, rosuvastatin was dissolved to 1 mg/mL in 0.1M HCl and heated for the specified time and temperature. For alkaline degradation, rosuvastatin was dissolved to 1 mg/mL in 0.1M NaOH and heated to 80° C. for 1 h. For oxidative degradation, rosuvastatin was dissolved to 1 mg/mL in 30% hydrogen peroxide and heated to 80° C. for 30 min. For stability over time, rosuvastatin was dissolved to 1 mg/mL in water at room temperature for 5 days. For thermal degradation studies in solution, rosuvastatin was dissolved to 1 mg/mL in dimethylsulfoxide and heated to the specified temperature for 2 h. In each case, samples of the solution were diluted in methanol and analyzed by LCMS to determine the ratio of intact drug to degraded drug.
POLYMER CONDITIONS: For thermal degradation studies in formulation, rosuvastatin was blended with PCL at a ratio of 25:75 drug:PCL and the blend was heated to the specified temperature for 2 h. The drug-polymer blend was then dissolved in dichloromethane and this solution was added to excess methanol to precipitate PCL. Samples of the methanol solution were then analyzed by LCMS to determine the ratio of intact drug to degraded drug.

[2] = oral, once daily; cited from earlier work
[3] = Rosuvastatin forced degradation in solution and in polycaprolactone formulation; type: physicochemical; conditions: Heat: 1 mg/mL drug in DMSO, 1 h
[4] = method not given; cited from earlier work
[5] = PCL/SGF partition coefficient; type: physicochemical; conditions: 5:1 PCL diol (MW 530):ethyl acetate versus FaSSGF
Experimental: Partitioning of active pharmaceutical ingredient (API) between the structural polymer, polycaprolactone (PCL), and fasted state simulated gastric fluid (FaSSGF) is of interest for predicting API release rate from PCL-based formulations. To measure the PCL-SGF partition coefficient of an API, a concentrated stock solution of API was added to a mixture of 1 mL FaSSGF and 1 mL of 5:1 PCL diol (MW 530):ethyl acetate. The sample was vortexed and centrifuged at 10000 rpm for 5 minutes. The SGF phase was analyzed by HPLC to measure drug concentration. The PCL phase was diluted in methanol prior to quantification on HPLC.

physchem [6] = conditions: thermodynamic from solid
[7] = Time dependent thermal processing stability of aripiprazole at 100 °C; conditions: for Visual Observation / Impurity % 0.86 RRT: extruded at 100 °C
[8] = Aripiprazole stability versus processing temperature
physchem [9] = conditions: water, thermodynamic from solid
From the text: First, various surfactants were screened for their ability to improve aripiprazole solubility in FaSSGF and water. Equilibrium solubility of aripiprazole in the presence of surfactants was estimated in water and FaSSGF by the procedure described in Example 50.

[10] = extruded at 90 °C, same formulation
[11] = extruded at 100 °C, same formulation
[12] = extruded at 120 °C, same formulation
[13] = extruded at 140 °C, same formulation
[14] = extruded at 160 °C, same formulation
[15] = extruded at 180 °C, same formulation

Compound: CC(C)c1nc(N(C)S(C)(=O)=O)nc(-c2ccc(F)cc2)c1/C=C/[C@@H](O)C[C@@H](O)CC(=O)O [Rosuvastatin]
- acid stability in PCL formulation versus in solution ([1]; FIG. 20): protects the drug from acid degradation
- thermal stability in PCL formulation versus in solution ([1]; FIG. 21): protects the drug from degradation at elevated temperatures
- elimination half-life [2]: approximately 19 hours

Compound: CC(C)c1nc(N(C)S(C)(=O)=O)nc(-c2ccc(F)cc2)c1/C=C/[C@@H](O)C[C@@H](O)CC(=O)[O-].CC(C)c1nc(N(C)S(C)(=O)=O)nc(-c2ccc(F)cc2)c1/C=C/[C@@H](O)C[C@@H](O)CC(=O)[O-].[Ca+2] [Rosuvastatin calcium]
- % Intact drug ([3]; 100 C.): 86%
- % Intact drug ([3]; 120 C.): >95%
- % Intact drug ([1]; Acid: 0.1N HCl, 37 C., 2 d): 66%
- % Intact drug ([1]; Acid: 0.1N HCl, 37 C., overnight, 1 mg/mL): 87%
- % Intact drug ([1]; Acid: 0.1N HCl, 50 C., 4 h): 93%
- % Intact drug ([1]; Acid: 0.1N HCl, 50 C., overnight): 58%
- % Intact drug ([1]; Acid: 0.1N HCl, 80 C., 1 h): ~100%
- % Intact drug ([1]; Base: 0.1M NaOH, 80 C., 1 h): ~100%
- % Intact drug ([1]; Heat: 1 mg/mL drug in DMSO, 100 C., 2 h): 86%
- % Intact drug ([1]; Heat: 1 mg/mL drug in DMSO, 120 C., 2 h): 77%
- % Intact drug ([1]; Oxidation: 30% H2O2, 80 C., 30 min): ~100%
- % Intact drug ([1]; Polymer-blended: 25% drug in polycaprolactone, 100 C., 2 h): >95%
- % Intact drug ([1]; Polymer-blended: 25% drug in polycaprolactone, 120 C., 2 h): >95%
- % Intact drug ([1]; Time: 1 mg/mL drug in water, room temperature, 5 days): 62%

Compound: Doxycycline Hyclate
- LogP (Octanol/water) [4]: −1.9
- LogP (PCL/SGF) [5]: 0.27
- PCL/SGF Partition Coefficient [5]: 1.88

Compound: O=C1CCc2ccc(OCCCCN3CCN(c4cccc(Cl)c4Cl)CC3)cc2N1 [Aripiprazole]
- LogP (Octanol/water) [4]: 5.59
- solubility (physchem [6]; pH 1.06, simulated gastric fluid): 500 µg/mL (≈ 1120 µM)
- solubility (physchem [6]; pH 3, aqueous buffer): 120 µg/mL (≈ 268 µM)
- solubility (physchem [6]; pH 4.65, aqueous buffer): 110 µg/mL (≈ 245 µM)
- degradation at 100 °C at all the timepoints ([7]; 5 to 30 minutes extrusion, same formulation): no significant degradation
- Visual Observation ([7]; 5 min, 75 rpm, 20% aripiprazole/10% Kolliphor P407/10% Eudragit EPO/80 K PCL formulation): White colored extrudate
- Impurity % 0.86 RRT ([7]; 5 min, same formulation): 0.08%
- Impurity % 0.86 RRT ([7]; 10 min, same formulation): 0.08%
- Visual Observation ([7]; 10 min, same formulation): White colored extrudate
- Impurity % 0.86 RRT ([7]; 15 min, same formulation): 0.08%
- Visual Observation ([7]; 15 min, same formulation): White colored extrudate
- Impurity % 0.86 RRT ([7]; 20 min, same formulation): 0.08%
- Visual Observation ([7]; 20 min, same formulation): White colored extrudate
- Impurity % 0.86 RRT ([7]; 30 min, same formulation): 0.08%
- Visual Observation ([7]; 30 min, same formulation): White colored extrudate
- LogP (PCL/SGF) [5]: 1.67
- PCL/SGF Partition Coefficient [5]: 49
- Visual Observation ([8]; extruded at 90 °C, 10 min batch mixing 75 rpm, 20% Aripiprazole/10% Kolliphor P407/10% Eudragit EPO/80 K PCL formulation): White
- % Impurity Total [8, 10]: <0.05%
- % Impurity at RRT 0.64 [8, 10]: <0.05%
- % Impurity Total [8, 11]: <0.05%
- % Impurity at RRT 0.64 [8, 11]: <0.05%
- Visual Observation [8, 11]: White
- % Impurity Total [8, 12]: <0.05%
- % Impurity at RRT 0.64 [8, 12]: <0.05%
- Visual Observation [8, 12]: White
- % Impurity Total [8, 13]: 0.14%
- % Impurity at RRT 0.64 [8, 13]: <0.05%
- % Impurity at RRT 0.86 [8, 13]: 0.14%
- Visual Observation [8, 13]: Slight pink
- % Impurity Total [8, 14]: 0.21%
- % Impurity at RRT 0.22 [8, 14]: 0.08%
- % Impurity at RRT 0.42 [8, 14]: 0.08%
- % Impurity at RRT 0.64 [8, 14]: 0.05%
- Visual Observation [8, 14]: Brown
- % Impurity Total [8, 15]: 0.60%
- % Impurity at RRT 0.22 [8, 15]: 0.28%
- % Impurity at RRT 0.42 [8, 15]: 0.12%
- % Impurity at RRT 0.64 [8, 15]: 0.07%
- % Impurity at RRT 0.71 [8, 15]: <0.05%
- % Impurity at RRT 0.81 [8, 15]: 0.05%
- % Impurity at RRT 0.93 [8, 15]: 0.08%
- Visual Observation [8, 15]: Brown
- solubility (physchem [9]): ~0.456 µg/mL (≈ 1.02 µM)

Compound: Ivermectin
- LogP (Octanol/water) [4]: 4.1
- LogP (PCL/SGF) [5]: 2.60
- PCL/SGF Partition Coefficient [5]: 398

Compound: Cc1nc2n(c(=O)c1CCN1CCC(c3noc4cc(F)ccc34)CC1)CCCC2 [Risperidone]
- PCL/SGF Partition Coefficient [5]: 0.03

Compound: CC12CC3CC(C)(C1)CC(N)(C3)C2 [Memantine]
- LogP (PCL/SGF) [5]: −0.56
- PCL/SGF Partition Coefficient [5]: 0.28
